From the supplement of paper PMC10307832

How the values were obtained:
Assay in all cases: relative viability (nuclei count vs DMSO), 5 days (fraction); higher = more cells survive
NCI-H1793 = system: NCI-H1793
In short: (§1)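 One day after seeding in 1536-well plates, lung cancer cell lines were dosed by pin tool. Dosing was either single-drug or a fixed anchor-drug dose plus five library-drug doses (not always all listed) in √10 steps. After 5 days, nuclei were stained in one fix-and-stain step and counted on 4× images, and relative viability is the nuclei count of treated wells over that of vehicle wells, given as the median of duplicate plates.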

NCI-H1792 = system: NCI-H1792
In short: as §1

A-427 = system: A-427
In short: as §1

SK-MES-1 = system: SK-MES-1
In short: as §1

HCC-44 = system: HCC-44
In short: as §1

NCI-H1944 = system: NCI-H1944
In short: as §1

NCI-H358 = system: NCI-H358
In short: as §1

NCI-H1975 = system: NCI-H1975
In short: as §1

NCI-H522 = system: NCI-H522
In short: as §1

LXF-289 = system: LXF-289
In short: as §1

H3255 = system: H3255
In short: as §1

NCI-H1915 = system: NCI-H1915
In short: as §1

NCI-H1993 = system: NCI-H1993
In short: as §1

LOU-NH91 = system: LOU-NH91
In short: as §1

COR-L 105 = system: COR-L 105
In short: as §1

NCI-H2170 = system: NCI-H2170
In short: as §1

SW 900 = system: SW 900
In short: as §1

NCI-H520 = system: NCI-H520
In short: as §1

HCC-827 = system: HCC-827
In short: as §1

NCI-H2087 = system: NCI-H2087
In short: as §1

NCI-H2023 = system: NCI-H2023
In short: as §1

LCLC-103H = system: LCLC-103H
In short: as §1

SW 1573 = system: SW 1573
In short: as §1

Structure (SMILES): CN1CCN(CCOc2cc(OC3CCOCC3)c3c(Nc4c(Cl)ccc5c4OCO5)ncnc3c2)CC1 [Saracatinib] + Nc1ncn([C@H]2C[C@H](O)[C@@H](CO)O2)c(=O)n1 [Decitabine] (partner 2 µM)
- relative viability (NCI-H1793; first compound 0.02 µM): 0.543
- relative viability (NCI-H1793; first compound 0.2 µM): 0.338
- relative viability (NCI-H1793; first compound 0.6325 µM): 0.504
- relative viability (NCI-H1793; first compound 2 µM): 0.403
- relative viability (NCI-H1792; first compound 0.02 µM): 0.597
- relative viability (NCI-H1792; first compound 0.2 µM): 0.464
- relative viability (NCI-H1792; first compound 0.6325 µM): 0.687
- relative viability (NCI-H1792; first compound 2 µM): 0.522
- relative viability (A-427; first compound 0.02 µM): 0.533
- relative viability (A-427; first compound 0.2 µM): 0.511
- relative viability (A-427; first compound 0.6325 µM): 0.593
- relative viability (A-427; first compound 2 µM): 0.526
- relative viability (SK-MES-1; first compound 0.02 µM): 0.353
- relative viability (SK-MES-1; first compound 0.2 µM): 0.352
- relative viability (SK-MES-1; first compound 0.6325 µM): 0.36
- relative viability (SK-MES-1; first compound 2 µM): 0.203
- relative viability (HCC-44; first compound 0.02 µM): 0.964
- relative viability (HCC-44; first compound 0.2 µM): 0.854
- relative viability (HCC-44; first compound 0.6325 µM): 0.994
- relative viability (HCC-44; first compound 2 µM): 0.94
- relative viability (NCI-H1944; first compound 0.02 µM): 0.423
- relative viability (NCI-H1944; first compound 0.2 µM): 0.356
- relative viability (NCI-H1944; first compound 0.6325 µM): 0.434
- relative viability (NCI-H1944; first compound 2 µM): 0.371
- relative viability (NCI-H358; first compound 0.02 µM): 0.224
- relative viability (NCI-H358; first compound 0.2 µM): 0.198
- relative viability (NCI-H358; first compound 0.6325 µM): 0.179
- relative viability (NCI-H358; first compound 2 µM): 0.146
- relative viability (NCI-H1975; first compound 0.02 µM): 0.45
- relative viability (NCI-H1975; first compound 0.2 µM): 0.37
- relative viability (NCI-H1975; first compound 0.6325 µM): 0.386
- relative viability (NCI-H1975; first compound 2 µM): 0.338
- relative viability (NCI-H522; first compound 0.02 µM): 0.737
- relative viability (NCI-H522; first compound 0.2 µM): 0.665
- relative viability (NCI-H522; first compound 0.6325 µM): 0.705
- relative viability (NCI-H522; first compound 2 µM): 0.627
- relative viability (LXF-289; first compound 0.02 µM): 0.327
- relative viability (LXF-289; first compound 0.2 µM): 0.314
- relative viability (LXF-289; first compound 0.6325 µM): 0.387
- relative viability (LXF-289; first compound 2 µM): 0.36
- relative viability (H3255; first compound 0.02 µM): 0.605
- relative viability (H3255; first compound 0.2 µM): 0.587
- relative viability (H3255; first compound 0.6325 µM): 0.579
- relative viability (H3255; first compound 2 µM): 0.209
- relative viability (NCI-H1915; first compound 0.02 µM): 0.245
- relative viability (NCI-H1915; first compound 0.2 µM): 0.264
- relative viability (NCI-H1915; first compound 0.6325 µM): 0.255
- relative viability (NCI-H1915; first compound 2 µM): 0.237
- relative viability (NCI-H1993; first compound 0.02 µM): 0.63
- relative viability (NCI-H1993; first compound 0.2 µM): 1.43
- relative viability (NCI-H1993; first compound 0.6325 µM): 0.521
- relative viability (NCI-H1993; first compound 2 µM): 0.556
- relative viability (LOU-NH91; first compound 0.02 µM): 0.778
- relative viability (LOU-NH91; first compound 0.2 µM): 0.665
- relative viability (LOU-NH91; first compound 0.6325 µM): 0.715
- relative viability (LOU-NH91; first compound 2 µM): 0.641
- relative viability (COR-L 105; first compound 0.02 µM): 0.719
- relative viability (COR-L 105; first compound 0.2 µM): 0.485
- relative viability (COR-L 105; first compound 0.6325 µM): 0.635
- relative viability (COR-L 105; first compound 2 µM): 0.458
- relative viability (NCI-H2170; first compound 0.02 µM): 0.453
- relative viability (NCI-H2170; first compound 0.2 µM): 0.412
- relative viability (NCI-H2170; first compound 0.6325 µM): 0.452
- relative viability (NCI-H2170; first compound 2 µM): 0.415
- relative viability (SW 900; first compound 0.02 µM): 0.544
- relative viability (SW 900; first compound 0.2 µM): 0.384
- relative viability (SW 900; first compound 0.6325 µM): 0.399
- relative viability (SW 900; first compound 2 µM): 0.635
- relative viability (NCI-H520; first compound 0.02 µM): 0.544
- relative viability (NCI-H520; first compound 0.2 µM): 0.499
- relative viability (NCI-H520; first compound 0.6325 µM): 0.434
- relative viability (NCI-H520; first compound 2 µM): 0.346
- relative viability (HCC-827; first compound 0.02 µM): 0.359
- relative viability (HCC-827; first compound 0.2 µM): 0.225
- relative viability (HCC-827; first compound 0.6325 µM): 0.19
- relative viability (HCC-827; first compound 2 µM): 0.151
- relative viability (NCI-H2087; first compound 0.02 µM): 0.322
- relative viability (NCI-H2087; first compound 0.2 µM): 0.226
- relative viability (NCI-H2087; first compound 0.6325 µM): 0.27
- relative viability (NCI-H2087; first compound 2 µM): 0.293
- relative viability (NCI-H2023; first compound 0.02 µM): 0.245
- relative viability (NCI-H2023; first compound 0.2 µM): 0.176
- relative viability (NCI-H2023; first compound 0.6325 µM): 0.204
- relative viability (NCI-H2023; first compound 2 µM): 0.222
- relative viability (LCLC-103H; first compound 0.02 µM): 0.774
- relative viability (LCLC-103H; first compound 0.2 µM): 0.653
- relative viability (LCLC-103H; first compound 0.6325 µM): 0.72
- relative viability (LCLC-103H; first compound 2 µM): 0.716
- relative viability (SW 1573; first compound 0.02 µM): 0.512
- relative viability (SW 1573; first compound 0.2 µM): 0.481
- relative viability (SW 1573; first compound 0.6325 µM): 0.458
- relative viability (SW 1573; first compound 2 µM): 0.434
